Like-named read-outs stand apart in the source and are kept apart here.
Assays:
[1] = Paste air entrainment, Maximum air protocol; settings: for Average of air entrained at 66 min: over the fly ash:PCA pastes of Table 9
Description: Preparation of pastes: Pastes were prepared by pouring 400 g of cementitious powder in the 350-400 g of solution (water and additives) in a vessel (8.4 cm dia,×14.5 cm height) while gently stirring with a spatula; the exact quantity of water depends on the selected W/B ratio (see below); rapid hand mixing was continued for 1 minute, followed by intense stirring at 25° C. during 2 min using a hand-held mixer (BRAUN model MR400). The level of air entrained is dependent on the mode of utilisation of the mixer, namely the height of the mixer from the bottom of the vessel and the length of the mixing stroke; the following protocols were adopted.
Fluidity measurements: For all air entrainment measurements, the initial fluidity of the paste (without additives) was controlled using the ‘mini-slump’ procedure widely used for paste and grouts. In this protocol, a portion of the paste was transferred into the min-slump cone (a 2¼″ high, 1½″ bottom diameter, ¾″ top diameter cone); excess paste was skimmed-off with a straight; the cone was then raised and the spread diameter of the paste was recorded (average of two measurements). The fluidity is measured at 10 minutes after mixing. The paste is returned to the batch and reserved for subsequent AE measurements. The fluidity of the paste (without SA and AEA) is adjusted by changing the amount of water (water/cementitious ratio) which yields a spread diameter of 115±5 mm. The latter is monitored regularly.
Air entrainment measurements: For air entrainment measurements, a portion of the paste was transferred to overfill a Plexiglas cylinder (3¾ inches height, 2 inches interior diameter), which was then levelled flush to the top of the cylinder with a straight edge. The mass of the filled cylinder, minus the weight of the empty cylinder, is then recorded and used to calculate the amount of air according to the following formula: […]
This procedure was carried out at three times at 30 min. intervals (6, 36 and 66 min); the paste was let to stand at rest between measurements, and was stirred gently by hand for one minute prior to the subsequent air entrainment measurements.
Other combinations of air entrainment agents and sacrificial agents were prepared as stock solutions following the procedure outlined above, adjusting the weights of the various components to achieve the desired component ratios.

[2] = Second sacrificial agent testing protocol: paste air measurements with DDBS (0.0125 wt %) and rating; as to Overall performance rating (second protocol rating): key: 0: Fail; 1: Poor; 2: Good; 3: Preferred; 4: Most preferred; as to SA Rating (0-4): key: 0: Fail; 1: Poor; 2: Good; 3: Preferred; 4: Most preferred
Outline: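 Air entrainment was measured in cement pastes of fixed composition and fluidity. The candidate agent was tested alone at 0.1 wt % in a cement-only paste. It was also tested at 0.05 and 0.1 wt % in a fly ash (B1)-cement paste with DDBS, where air recovery was calculated against the same paste without agent.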

[3] = 50:50 fly ash B1 (LOI 4.36%):PCA paste, Air 30 (0.0125 wt %)/ND/X=1/4/4, X = the labelled SA
[4] = 50:50 fly ash C1 (LOI 1.62%):PCA paste, Air 30 (0.0125 wt %)/ND/X=1/4/4, X = the labelled SA
[5] = 50:50 fly ash D (LOI […]):PCA paste, Air 30 (0.0125 wt %)/ND/X=1/4/4, X = the labelled SA
[6] = 50:50 fly ash M1 (LOI […]):PCA paste, Air 30 (0.0125 wt %)/ND/X=1/4/4, X = the labelled SA
[7] = 50:50 fly ash M2 (LOI 5.34%):PCA paste, Air 30 (0.0125 wt %)/ND/X=1/4/4, X = the labelled SA
[8] = 50:50 fly ash M3 (LOI 11.33%):PCA paste, Air 30 (0.0125 wt %)/ND/X=1/4/4, X = the labelled SA
[9] = 50:50 fly ash R (LOI […]):PCA paste, Air 30 (0.0125 wt %)/ND/X=1/4/4, X = the labelled SA
[10] = PCA paste, no fly ash, Air 30 (0.0125 wt %)/ND/X=1/4/4, X = the labelled SA
[11] = Air 30 (0.0125 wt %)/ND/X=1/4/4, X = the labelled SA
[12] = Portland cement paste (PCA), […]
[13] = sacrificial agent overall rating index
[14] = B1 FA/cement paste, 0.0125 wt % DDBS, 0.05 wt % SA
[15] = B1 FA/cement paste, 0.0125 wt % DDBS, 0.10 wt % SA

Molecule: COCCO [EGME, Ethylene glycol methyl ether]
- Air entrained at 66 min [1, 3]: 12 vol %
- Air entrained at 66 min [1, 4]: 20 vol %
- Air entrained at 66 min [1, 5]: 20 vol %
- Air entrained at 66 min [1, 6]: 17 vol %
- Air entrained at 66 min [1, 7]: 8 vol %
- Air entrained at 66 min [1, 8]: 12 vol %
- Air entrained at 66 min [1, 9]: 17 vol %
- Air entrained at 66 min [1, 10]: 18 vol %
- Average of air entrained at 66 min [1, 11]: 15%
- B1 + 0.0125% DDBS + 0.05% SA (air entrainment) [2]: 3.3
- B1 + 0.0125% DDBS + 0.1% SA (air entrainment) [2]: 4.3
- Overall performance rating (second protocol rating) [2]: 1
- PCA + 0.1% SA (level of air entrainment by the candidate sacrificial agent) [2]: 0.7
- SA Rating (0-4) [2]: 1

Molecule: Polyethylene glycol (Molecular weight = 1500) [PEG 1500]
- Air entrained at 66 min ([1]; 50:50 fly ash B1 (LOI 4.36%):PCA paste, Air 30 (0.0125%)/NS/X=1/4/4, X = the labelled SA): 8 vol %
- Air entrained at 66 min [1, 3]: 14 vol %
- Air entrained at 66 min ([1]; 50:50 fly ash D (LOI […]):PCA paste, Air 30 (0.0125%)/NS/X=1/4/4, X = the labelled SA): 19 vol %
- Air entrained at 66 min [1, 5]: 21 vol %
- Air entrained at 66 min ([1]; 50:50 fly ash M1 (LOI […]):PCA paste, Air 30 (0.0125%)/NS/X=1/4/4, X = the labelled SA): 18 vol %
- Air entrained at 66 min [1, 6]: 18 vol %
- Air entrained at 66 min ([1]; 50:50 fly ash M2 (LOI 5.34%):PCA paste, Air 30 (0.0125%)/NS/X=1/4/4, X = the labelled SA): 5 vol %
- Air entrained at 66 min [1, 7]: 9 vol %
- Air entrained at 66 min ([1]; 50:50 fly ash R (LOI […]):PCA paste, Air 30 (0.0125%)/NS/X=1/4/4, X = the labelled SA): 16 vol %
- Air entrained at 66 min [1, 9]: 18 vol %
- Air entrained at 66 min ([1]; PCA paste, no fly ash, Air 30 (0.0125%)/NS/X=1/4/4, X = the labelled SA): 11 vol %
- Air entrained at 66 min [1, 10]: 20 vol %
- Average of air entrained at 66 min [1, 11]: 16%

Molecule: CC(O)C(O)c1ccccc1 (stereo not drawn) [1-Phe 2-Pro, 1-Phenyl 2-propylene glycol]
- Air entrained at 66 min [1, 3]: 13 vol %
- Air entrained at 66 min [1, 4]: 18 vol %
- Air entrained at 66 min [1, 5]: 18 vol %
- Air entrained at 66 min [1, 6]: 16 vol %
- Air entrained at 66 min [1, 7]: 9 vol %
- Air entrained at 66 min [1, 8]: 13 vol %
- Air entrained at 66 min [1, 9]: 16 vol %
- Air entrained at 66 min [1, 10]: 17 vol %
- Average of air entrained at 66 min [1, 11]: 15%

Molecule: Sodium di-butyl naphthalene sulfonate [DBNS]
- Air entrained at 66 min ([1]; 50:50 fly ash B1 (LOI 4.36%):PCA paste, Air 30 (0.0125 wt %)/X/ButOH=1/4/4, X = the labelled sulfonated SA): 11 vol %
- Air entrained at 66 min ([1]; 50:50 fly ash D (LOI […]):PCA paste, Air 30 (0.0125 wt %)/X/ButOH=1/4/4, X = the labelled sulfonated SA): 20 vol %
- Air entrained at 66 min ([1]; 50:50 fly ash M2 (LOI 5.34%):PCA paste, Air 30 (0.0125 wt %)/X/ButOH=1/4/4, X = the labelled sulfonated SA): 7 vol %
- Air entrained at 66 min ([1]; PCA paste, no fly ash, Air 30 (0.0125 wt %)/X/ButOH=1/4/4, X = the labelled sulfonated SA): 17 vol %

Molecule: CCC(=O)OC [Methylpropionate]
- B1 + 0.0125% DDBS + 0.05% SA (air entrainment) ([2]; B1 FA/cement paste, […]): 2.7
- B1 + 0.0125% DDBS + 0.1% SA (air entrainment) ([2]; B1 FA/cement paste, […]): 3.5
- PCA + 0.1% SA (level of air entrainment by the candidate sacrificial agent) [2, 12]: 0.2
- SA Rating (0-4) [2, 13]: 0

Molecule: Nc1c(O)cc(S(=O)(=O)[O-])c2ccccc12.[Na+]
- B1 + 0.0125% DDBS + 0.05% SA (air entrainment) [2, 14]: 3.1
- B1 + 0.0125% DDBS + 0.1% SA (air entrainment) [2, 15]: 2.9
- PCA + 0.1% SA (level of air entrainment by the candidate sacrificial agent) [2, 12]: 0.4
- SA Rating (0-4) [2, 13]: 0

Molecule: COc1ccc(OC)cc1 [p-Dimethoxybenzene]
- Overall performance rating (second protocol rating) [2]: 2
- B1 + 0.0125% DDBS + 0.05% SA (air entrainment) ([2]; B1 FA/cement paste, […]): 4.7
- B1 + 0.0125% DDBS + 0.1% SA (air entrainment) ([2]; B1 FA/cement paste, […]): 4.0
- PCA + 0.1% SA (level of air entrainment by the candidate sacrificial agent) [2, 12]: 0.7
- SA Rating (0-4) [2, 13]: 2

Molecule: CC1COC(=O)O1 (stereo not drawn) [Propylene carbonate]
- B1 + 0.0125% DDBS + 0.05% SA (air entrainment) [2, 14]: 2.5
- B1 + 0.0125% DDBS + 0.1% SA (air entrainment) [2, 15]: 2.9
- PCA + 0.1% SA (level of air entrainment by the candidate sacrificial agent) [2, 12]: 0.4
- SA Rating (0-4) [2, 13]: 0

Molecule: NC(N)=O [Urea]
- Overall performance rating (second protocol rating) [2]: 2
- B1 + 0.0125% DDBS + 0.1% SA (air entrainment) ([2]; B1 FA/cement paste, […]): 2.0
- PCA + 0.1% SA (level of air entrainment by the candidate sacrificial agent) [2, 12]: 0.1
- SA Rating (0-4) [2, 13]: 2

Molecule: CCCO [n-Propanol]
- B1 + 0.0125% DDBS + 0.05% SA (air entrainment) [2]: 3.5
- B1 + 0.0125% DDBS + 0.1% SA (air entrainment) [2]: 4.4
- Overall performance rating (second protocol rating) [2]: 1
- PCA + 0.1% SA (level of air entrainment by the candidate sacrificial agent) [2]: 2.0
- SA Rating (0-4) [2]: 1

Molecule: CCC(C)=O [2-Butanone (Methyl ethyl ketone)]
- B1 + 0.0125% DDBS + 0.05% SA (air entrainment) ([2]; B1 FA/cement paste, […]): 3.7
- B1 + 0.0125% DDBS + 0.1% SA (air entrainment) ([2]; B1 FA/cement paste, […]): 4.1
- PCA + 0.1% SA (level of air entrainment by the candidate sacrificial agent) [2, 12]: 0.3
- SA Rating (0-4) [2, 13]: 1

Molecule: Cc1ccc(S(=O)(=O)O)cc1 [p-Toluene Sulfonic acid]
- Overall performance rating (second protocol rating) [2]: 3
- B1 + 0.0125% DDBS + 0.05% SA (air entrainment) ([2]; B1 FA/cement paste, […]): 3.9
- B1 + 0.0125% DDBS + 0.1% SA (air entrainment) ([2]; B1 FA/cement paste, […]): 5.1
- PCA + 0.1% SA (level of air entrainment by the candidate sacrificial agent) [2, 12]: 0.7
- SA Rating (0-4) [2, 13]: 3

Molecule: O=S(=O)([O-])c1cc(O)c2c(O)cc(S(=O)(=O)[O-])cc2c1.[Na+].[Na+]
- B1 + 0.0125% DDBS + 0.05% SA (air entrainment) ([2]; B1 FA/cement paste, […]): 2.0
- B1 + 0.0125% DDBS + 0.1% SA (air entrainment) ([2]; B1 FA/cement paste, […]): 2.5
- PCA + 0.1% SA (level of air entrainment by the candidate sacrificial agent) [2, 12]: 0.0
- SA Rating (0-4) [2, 13]: 0

Molecule: Cl.NCC(N)C(=O)O (stereo not drawn)
- B1 + 0.0125% DDBS + 0.05% SA (air entrainment) ([2]; B1 FA/cement paste, […]): 1.7
- B1 + 0.0125% DDBS + 0.1% SA (air entrainment) ([2]; B1 FA/cement paste, […]): 1.9
- PCA + 0.1% SA (level of air entrainment by the candidate sacrificial agent) [2, 12]: 0.3
- SA Rating (0-4) [2, 13]: 0

Molecule: O=C([O-])c1ccccc1O.[Na+] [Sodium Salicylate]
- B1 + 0.0125% DDBS + 0.05% SA (air entrainment) [2]: 2.9
- B1 + 0.0125% DDBS + 0.1% SA (air entrainment) [2]: 3.0
- PCA + 0.1% SA (level of air entrainment by the candidate sacrificial agent) [2]: 0.4
- SA Rating (0-4) [2]: 0

Molecule: CCOC(C)=O [Ethyl acetate]
- B1 + 0.0125% DDBS + 0.05% SA (air entrainment) ([2]; B1 FA/cement paste, […]): 3.2
- B1 + 0.0125% DDBS + 0.1% SA (air entrainment) ([2]; B1 FA/cement paste, […]): 3.3
- PCA + 0.1% SA (level of air entrainment by the candidate sacrificial agent) [2, 12]: 0.8
- SA Rating (0-4) [2, 13]: 0

Molecule: CCCCCCCC/C=C\CCCCCCCC(=O)OC [Methyloleate]
- B1 + 0.0125% DDBS + 0.05% SA (air entrainment) [2, 14]: 5.1
- B1 + 0.0125% DDBS + 0.1% SA (air entrainment) [2, 15]: 2.7
- PCA + 0.1% SA (level of air entrainment by the candidate sacrificial agent) [2, 12]: 0.5
- SA Rating (0-4) [2, 13]: 2
- Overall performance rating (second protocol rating) ([2]; sum of ratings of air entrainment recovery by 0.05% and 0.1% SA, DDBS 0.0125 wt %, 50:50 B1 fly ash:cement paste): 2
